Drawing on ChEMBL document CHEMBL1123151, “Carbocyclic analogues of 5'-amino-5'-deoxy- and 3'-amino-3'-deoxythymidines” (1986), this text covers Ratio and VR for six compounds.

Assay [1] can be described thus: Ratio of the virus rating of the thymidine analogue to the virus rating of ara-A; Experiment 2. It is filed as functional.
Assay [2] is described as follows: Ratio of the virus rating of the thymidine analogue to the virus rating of ara-A; Experiment 1. In kind it is functional.
In assay [3] the test system is L929. Nature of the assay: Compound was tested for inhibition against replication of type 1 herpes simplex virus (HSV-2,strain MS) in L929 cells. It is filed as functional, Mus musculus.
Assay [4] concerns Vero. Put plainly: Compound was tested for inhibition against replication of type 1 herpes simplex virus (HSV-1,strain 377) in vero cells; Experiment 4. In kind it is functional, Chlorocebus sabaeus.
The test system of assay [5] is L929. Nature of the assay: Compound was tested for inhibition against replication of type 1 herpes simplex virus (HSV-1,strain 377) in L929 cells; Experiment 1. It is filed as functional, Mus musculus.
The test system of assay [6] is L929. Put plainly: Compound was tested for inhibition against replication of type 1 herpes simplex virus (HSV-1,strain 377) in L929 cells; Experiment 2. It is filed as functional, Mus musculus.
The subject of assay [7] is HEp-2. Nature of the assay: Compound was tested for inhibition against replication of type 1 herpes simplex virus (HSV-1,strain HF) in human epidermoid carcinoma cells. In kind it is functional.
The subject of assay [8] is Vero. Nature of the assay: Compound was tested for inhibition against replication of type 1 herpes simplex virus (HSV-1,strain 377) in vero cells; Experiment 3. In kind it is functional, Chlorocebus sabaeus.
The nature of assay [9]: Ratio of the virus rating of the thymidine analogue to the virus rating of ara-A in vero cells; Experiment 4. In kind it is functional.
In assay [10] the test system is Vero. Put plainly: Compound was tested for inhibition against replication of type 1 herpes simplex virus (HSV-1,strain 377) in vero cells; Experiment 2. In kind it is functional, Chlorocebus sabaeus.
Assay [11] is described as follows: Ratio of the virus rating of the thymidine analogue to the virus rating of ara-A in vero cells; Experiment 2. It is filed as functional.
Assay [12] is described as follows: Ratio of the virus rating of the thymidine analogue to the virus rating of ara-A in vero cells; Experiment 3. It is filed as functional.
The test system of assay [13] is L929. Nature of the assay: Compound was tested for inhibition against replication of type 1 herpes simplex virus (HSV-1,strain 377) in L929 cells. In kind it is functional, Mus musculus.
The subject of assay [14] is Vero. Put plainly: Compound was tested for inhibition against replication of type 1 herpes simplex virus (HSV-1, strain 377) in vero cells; Experiment 5. It is filed as functional, Chlorocebus sabaeus.
Assay [15] concerns Vero. Put plainly: Compound was tested for inhibition against replication of type 1 herpes simplex virus (HSV-1, strain 377) in vero cells; Experiment 2. In kind it is functional, Chlorocebus sabaeus.
The nature of assay [16]: Ratio of the virus rating of the thymidine analogue to the virus rating of ara-A. In kind it is functional.
For assay [17], the system named is L929. Nature of the assay: Compound was tested for inhibition against replication of type 1 herpes simplex virus (HSV-1,strain 377) L929 cells. In kind it is functional, Mus musculus.
Assay [18] deals with Vero. Put plainly: Compound was tested for inhibition against replication of type 1 herpes simplex virus (HSV-1,strain 377) in vero cells. In kind it is functional, Chlorocebus sabaeus.

With `Cc1cn(C2CC(O)C(CN)C2)c(=O)[nH]c1=O` (stereo not given), the results for the Ratio in assay [1] and in assay [2] were 1.28 and 1, respectively. Also, the VR in assay [3] came out at 0.5; in assay [4] it was 0; in assay [5], 3; in assay [6] it was 1.8; in [7], 0.2; in assay [8] it was 0.

As to `Cc1cn([C@@H]2C[C@H](CO)[C@H](N=[N+]=[N-])C2)c(=O)[nH]c1=O`, the Ratio was 0.44 in assay [9], 0.43 in assay [11] and 0.5 in assay [12]. In addition, the VR amounted to 0 in [3]; 0.6 in assay [10]; 0.8 in assay [4]; 0.2 in assay [13]; 0 in assay [6]; 1 in assay [8].

Consider `Cc1cn([C@@H]2C[C@H](CO)[C@H](N)C2)c(=O)[nH]c1=O`, for which, in assay [1], the Ratio stood at 0.9. Further, the VR in assay [14] turned out to be 0; in assay [6], 0.9; in assay [15] it was 0.

Take `Cc1cn([C@@H]2C[C@H](CO)[C@@H](N)C2)c(=O)[nH]c1=O`: in assay [16], the Ratio is reported as 0. Further, the figures for the VR in assay [17], in [10] and in assay [4] were 0.4, 0 and 0.4, respectively.

On to `Cc1cn([C@@H]2C[C@H](CO)[C@@H](N=[N+]=[N-])C2)c(=O)[nH]c1=O`, for which the VR in assay [18] was determined as 0.

Regarding `Cc1cn(C2CC(O)C(CN=[N+]=[N-])C2)c(=O)[nH]c1=O` (stereo not given), the Ratio in assay [16] turned out to be 0.27. Also, the VR in [3] is 0; in [13], 0.8; in assay [7], 0.
